In the supplement of paper PMC8671470:

test system: HL-60; assay: area under dose-response curve (viability, 1 nM-10 uM) (fraction (0-1)); higher = more sensitive; conditions: 72 h; co-treatment: AZD3965 100 nM
Method in brief: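 Four-parameter log-logistic fits in drc and PharmacoGx supplied area under the curve where it is given. Underlying viability came from CellTiter-Glo, normalised to DMSO and proteasome-inhibitor wells, with the proteasome inhibitor at 10 μM. HL-60 cells in RPMI 1640 plus 10% FBS had been rescreened against the full library at five tenfold concentrations of 1–10,000 nM, in duplicate on 384-well plates, with DMSO or 100 nM of one of three metabolic inhibitors, for 72 h at 37 °C, 5% CO2.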

| SMILES | area under dose-response curve |
| --- | --- |
| COc1ccc(S(=O)(=O)N2CCN(S(=O)(=O)c3ccc4c(c3)OCCO4)CC2)cc1 [BML283] | < 0.0301 |
| O=c1cc(-c2ccccc2)oc2cc(O)c(O)c(O)c12 [Baicalein] | < 0.0301 |
| COC(=O)[C@]12CCC(C)(C)C[C@H]1[C@H]1C(=O)C=C3[C@@]4(C)C=C(C#N)C(=O)C(C)(C)[C@@H]4CC[C@@]3(C)[C@]1(C)CC2 [Bardoxolone methyl] | 0.0976 |
| O=c1oc2c(O)c(O)cc3c(=O)oc4c(O)c(O)cc1c4c23 [Benzoaric Acid] | < 0.0301 |
| O=C1O/C(=C/Br)CCC1c1cccc2ccccc12 (stereo unspecified) [Bromoenol Lactone] | < 0.0301 |
| O=C(O)CCCCC(CCSCc1ccccc1)SCc1ccccc1 (stereo unspecified) [CPI-613] | < 0.0301 |
| CC(C)c1cc2c(c(O)c1O)[C@@]1(C(=O)O)CCCC(C)(C)[C@@H]1CC2 [Carnosic acid] | < 0.0301 |
| CCN(CC)CCCC(C)Nc1ccnc2cc(Cl)ccc12 (stereo unspecified) [Chloroquine] | < 0.0301 |
| Nc1nc(Cl)nc2c1ncn2[C@H]1C[C@H](O)[C@@H](CO)O1 [Cladribine] | 0.45 |
| NCCCC(N)(C(=O)O)C(F)F (stereo unspecified) [Difluoromethylornithine] | < 0.0301 |

same assay, conditions: 72 h; co-treatment: DMSO vehicle

| SMILES | area under dose-response curve |
| --- | --- |
| COc1ccc(S(=O)(=O)N2CCN(S(=O)(=O)c3ccc4c(c3)OCCO4)CC2)cc1 [BML283] | < 0.0301 |
| O=c1cc(-c2ccccc2)oc2cc(O)c(O)c(O)c12 [Baicalein] | < 0.0301 |
| COC(=O)[C@]12CCC(C)(C)C[C@H]1[C@H]1C(=O)C=C3[C@@]4(C)C=C(C#N)C(=O)C(C)(C)[C@@H]4CC[C@@]3(C)[C@]1(C)CC2 [Bardoxolone methyl] | < 0.0301 |
| O=c1oc2c(O)c(O)cc3c(=O)oc4c(O)c(O)cc1c4c23 [Benzoaric Acid] | < 0.0301 |
| O=C1O/C(=C/Br)CCC1c1cccc2ccccc12 (stereo unspecified) [Bromoenol Lactone] | < 0.0301 |
| O=C(O)CCCCC(CCSCc1ccccc1)SCc1ccccc1 (stereo unspecified) [CPI-613] | < 0.0301 |
| CC(C)c1cc2c(c(O)c1O)[C@@]1(C(=O)O)CCCC(C)(C)[C@@H]1CC2 [Carnosic acid] | < 0.0301 |
| CCN(CC)CCCC(C)Nc1ccnc2cc(Cl)ccc12 (stereo unspecified) [Chloroquine] | < 0.0301 |
| Nc1nc(Cl)nc2c1ncn2[C@H]1C[C@H](O)[C@@H](CO)O1 [Cladribine] | 0.394 |
| NCCCC(N)(C(=O)O)C(F)F (stereo unspecified) [Difluoromethylornithine] | < 0.0301 |

same assay, conditions: 72 h; co-treatment: GSK2194069 100 nM

| SMILES | area under dose-response curve |
| --- | --- |
| COc1ccc(S(=O)(=O)N2CCN(S(=O)(=O)c3ccc4c(c3)OCCO4)CC2)cc1 [BML283] | < 0.0301 |
| O=c1cc(-c2ccccc2)oc2cc(O)c(O)c(O)c12 [Baicalein] | < 0.0301 |
| COC(=O)[C@]12CCC(C)(C)C[C@H]1[C@H]1C(=O)C=C3[C@@]4(C)C=C(C#N)C(=O)C(C)(C)[C@@H]4CC[C@@]3(C)[C@]1(C)CC2 [Bardoxolone methyl] | 0.0723 |
| O=c1oc2c(O)c(O)cc3c(=O)oc4c(O)c(O)cc1c4c23 [Benzoaric Acid] | 0.0302 |
| O=C1O/C(=C/Br)CCC1c1cccc2ccccc12 (stereo unspecified) [Bromoenol Lactone] | < 0.0301 |
| O=C(O)CCCCC(CCSCc1ccccc1)SCc1ccccc1 (stereo unspecified) [CPI-613] | < 0.0301 |
| CC(C)c1cc2c(c(O)c1O)[C@@]1(C(=O)O)CCCC(C)(C)[C@@H]1CC2 [Carnosic acid] | < 0.0301 |
| CCN(CC)CCCC(C)Nc1ccnc2cc(Cl)ccc12 (stereo unspecified) [Chloroquine] | < 0.0301 |
| Nc1nc(Cl)nc2c1ncn2[C@H]1C[C@H](O)[C@@H](CO)O1 [Cladribine] | 0.459 |
| NCCCC(N)(C(=O)O)C(F)F (stereo unspecified) [Difluoromethylornithine] | < 0.0301 |

same assay, conditions: 72 h; co-treatment: pictilisib 100 nM

| SMILES | area under dose-response curve |
| --- | --- |
| COc1ccc(S(=O)(=O)N2CCN(S(=O)(=O)c3ccc4c(c3)OCCO4)CC2)cc1 [BML283] | 0.0571 |
| O=c1cc(-c2ccccc2)oc2cc(O)c(O)c(O)c12 [Baicalein] | < 0.0301 |
| COC(=O)[C@]12CCC(C)(C)C[C@H]1[C@H]1C(=O)C=C3[C@@]4(C)C=C(C#N)C(=O)C(C)(C)[C@@H]4CC[C@@]3(C)[C@]1(C)CC2 [Bardoxolone methyl] | 0.144 |
| O=c1oc2c(O)c(O)cc3c(=O)oc4c(O)c(O)cc1c4c23 [Benzoaric Acid] | 0.0302 |
| Cc1c(-c2ccc(-c3ccccc3F)cc2)nc2ccc(F)cc2c1C(=O)O [Brequinar] | < 0.0301 |
| O=C1O/C(=C/Br)CCC1c1cccc2ccccc12 (stereo unspecified) [Bromoenol Lactone] | < 0.0301 |
| O=C(O)CCCCC(CCSCc1ccccc1)SCc1ccccc1 (stereo unspecified) [CPI-613] | < 0.0301 |
| CC(C)c1cc2c(c(O)c1O)[C@@]1(C(=O)O)CCCC(C)(C)[C@@H]1CC2 [Carnosic acid] | < 0.0301 |
| CCN(CC)CCCC(C)Nc1ccnc2cc(Cl)ccc12 (stereo unspecified) [Chloroquine] | < 0.0301 |
| Nc1nc(Cl)nc2c1ncn2[C@H]1C[C@H](O)[C@@H](CO)O1 [Cladribine] | 0.515 |
| NCCCC(N)(C(=O)O)C(F)F (stereo unspecified) [Difluoromethylornithine] | < 0.0301 |

test system: KCL-22; assay: cell viability (% survival relative to DMSO control, bortezomib = 0%); higher = less cytotoxic; conditions: 1 nM; 72 h
Method in brief: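 Percent survival figures are means of duplicate wells. They were obtained by CellTiter-Glo luminescence after 10 AML and 5 CML cell lines spent 72 h at 37 °C with 5% CO2 in 384-well plates with compounds at 1, 10, 100, 1000 or 10000 nM. Vehicle was set to 100% and a 10 µM positive control to 0%.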

| SMILES | cell viability [%] |
| --- | --- |
| COc1ccc(S(=O)(=O)N2CCN(S(=O)(=O)c3ccc4c(c3)OCCO4)CC2)cc1 [BML283] | 106 |
| O=c1cc(-c2ccccc2)oc2cc(O)c(O)c(O)c12 [Baicalein] | 95 |
| COC(=O)[C@]12CCC(C)(C)C[C@H]1[C@H]1C(=O)C=C3[C@@]4(C)C=C(C#N)C(=O)C(C)(C)[C@@H]4CC[C@@]3(C)[C@]1(C)CC2 [Bardoxolone methyl] | 100 |
| O=c1oc2c(O)c(O)cc3c(=O)oc4c(O)c(O)cc1c4c23 [Benzoaric Acid] | 100 |
| Cc1c(-c2ccc(-c3ccccc3F)cc2)nc2ccc(F)cc2c1C(=O)O [Brequinar] | 101 |
| O=C1O/C(=C/Br)CCC1c1cccc2ccccc12 (stereo unspecified) [Bromoenol Lactone] | 95.3 |
| O=C(O)CCCCC(CCSCc1ccccc1)SCc1ccccc1 (stereo unspecified) [CPI-613] | 110 |
| CC(C)c1cc2c(c(O)c1O)[C@@]1(C(=O)O)CCCC(C)(C)[C@@H]1CC2 [Carnosic acid] | 101 |
| CCN(CC)CCCC(C)Nc1ccnc2cc(Cl)ccc12 (stereo unspecified) [Chloroquine] | 95.6 |
| Nc1nc(Cl)nc2c1ncn2[C@H]1C[C@H](O)[C@@H](CO)O1 [Cladribine] | 114 |
| NCCCC(N)(C(=O)O)C(F)F (stereo unspecified) [Difluoromethylornithine] | 111 |

same assay, conditions: 10 nM; 72 h

| SMILES | cell viability [%] |
| --- | --- |
| COc1ccc(S(=O)(=O)N2CCN(S(=O)(=O)c3ccc4c(c3)OCCO4)CC2)cc1 [BML283] | 93.3 |
| O=c1cc(-c2ccccc2)oc2cc(O)c(O)c(O)c12 [Baicalein] | 70.2 |
| COC(=O)[C@]12CCC(C)(C)C[C@H]1[C@H]1C(=O)C=C3[C@@]4(C)C=C(C#N)C(=O)C(C)(C)[C@@H]4CC[C@@]3(C)[C@]1(C)CC2 [Bardoxolone methyl] | 107 |
| O=c1oc2c(O)c(O)cc3c(=O)oc4c(O)c(O)cc1c4c23 [Benzoaric Acid] | 111 |
| Cc1c(-c2ccc(-c3ccccc3F)cc2)nc2ccc(F)cc2c1C(=O)O [Brequinar] | 94.3 |
| O=C1O/C(=C/Br)CCC1c1cccc2ccccc12 (stereo unspecified) [Bromoenol Lactone] | 93.1 |
| O=C(O)CCCCC(CCSCc1ccccc1)SCc1ccccc1 (stereo unspecified) [CPI-613] | 108 |
| CC(C)c1cc2c(c(O)c1O)[C@@]1(C(=O)O)CCCC(C)(C)[C@@H]1CC2 [Carnosic acid] | 104 |
| CCN(CC)CCCC(C)Nc1ccnc2cc(Cl)ccc12 (stereo unspecified) [Chloroquine] | 106 |
